The subject of this test is d(CTG)16 (DNA, repeat) GGGCTGCTGCTGCTGCTGCTGCTGCTGCTGCTGCTGCTGCTGCTGCTGCTGCCC
In words: ITC. The note with it: monomer alone.

The Kd is the free concentration of one partner at which half of the binding sites on the other are occupied at equilibrium, for simple one-to-one binding. A low value points to tighter binding. Compound `N=C(NCCCCNc1nc(N)nc(NCc2ccc(C=O)cc2)n1)c1ccc(C(=N)NCCCCNc2nc(N)nc(NCc3ccc(C=O)cc3)n2)cc1` registered a Kd of 81.6 ± 0.9 µM.
Next, `N=C(NCCCCNc1nc(N)nc(NCc2ccc(N)cc2)n1)c1ccc(C(=N)NCCCCNc2nc(N)nc(NCc3ccc(N)cc3)n2)cc1`: greater than 100 µM.

The record behind these values is publication PMC9733911 (2022).
